# Measured values taken from US20180271925A1, “Method For Improving Gingivitis And Periodontitis By Antibacterial, Antioxidant And Anti-Inflammatory Effects And Inhibition Of Alveolar Bone Loss Of Complex Extracts Of Moringa Leaf And Eucommia Bark” (HLSCIENCE CO., LTD., priority 2017, published 2018).
# Experiments:
# Assay type in all cases: in vivo, rat
# [1] = tested on: interleukin (IL)-1β in the gingival tissue; experiment: IL-1β content in gingival tissue of EPD rats, 14 natural substance extracts; details: extract 200 mg/kg (IND 5 mg/kg) oral once a day for 10 days, FIG. 1
# Description: The gingivitis- and periodontitis-improving effect was evaluated using rats with ligature-induced experimental periodontitis (EPD). 24 hours after the ligature of the cervical portion, each extract dissolved in sterilized distilled water was orally administered at a dosage of 5 mL/kg (200 mg/kg) once a day for 10 days and the change in the amount of interleukin (IL)-1β in the gingival tissue and the alveolar bone volume was observed along with histopathological changes. A group to which 5 mg/kg indomethacin (IND), which is a nonsteroidal anti-inflammatory drug (NSAID), was orally administered was used as a control group. […]
# After EPD for 11 days, the gingival tissue was homogenized and subjected to measurement with the IL-1β rat ELISA kit (Abcam, Cambridge, UK). […] After adding 50 μL of a stop solution to each well, absorbance was measured with a microplate reader (Tecan, Mannedofr, Switzerland) at a wavelength of 450 nm.
# [2] = tested on: rats with ligature-induced experimental periodontitis (EPD); experiment: Alveolar bone volume in EPD rats, 14 natural substance extracts; details: extract 200 mg/kg (IND 5 mg/kg) oral once a day for 10 days, FIG. 2
# Description: The gingivitis- and periodontitis-improving effect was evaluated using rats with ligature-induced experimental periodontitis (EPD). 24 hours after the ligature of the cervical portion, each extract dissolved in sterilized distilled water was orally administered at a dosage of 5 mL/kg (200 mg/kg) once a day for 10 days and the change in the amount of interleukin (IL)-1β in the gingival tissue and the alveolar bone volume was observed along with histopathological changes. A group to which 5 mg/kg indomethacin (IND), which is a nonsteroidal anti-inflammatory drug (NSAID), was orally administered was used as a control group.
# Each of the concentrated pomegranate powder and the 13 extracts containing moringa leaf (balloon flower root, gardeniae fructus, scutellariae radix, moringa, lotus leaf, Chinese mulberry leaf, ginger, peony root, achyranthis radix, eucommia bark, red clover, dandelion and dandelion root) was dissolved in sterilized distilled water to a concentration of 40 mg/mL and orally administered at a dosage of 5 mL/kg (200 mg/kg) from 24 hours after the ligature of the cervical portion once a day for 10 days. […]
# Alveolar bone loss was measured according to the method of Crawford et al. [1987]. […] The area between the end of the gingiva and the end of the incisor between the two teeth subjected to EPD was expressed as mm/rat.
# [3] = tested on: osteoclasts in alveolar bone; experiment: Number of osteoclasts in alveolar bone of EPD rats (TRAP staining); details: dosage of 200 mg/kg oral once a day for 10 days, FIG. 7
# Description: The gingivitis- and periodontitis-improving effect was evaluated using rats with ligature-induced experimental periodontitis (EPD). 9 complex compositions of the moringa leaf extract (MF) and the eucommia bark extract (EC) (MF:EC=1:1, 1:2, 1:4, 1:6, 1:8, 2:1, 4:1, 6:1 and 8:1; mg:mg) dissolved in sterilized distilled water were orally administered at a dosage of 5 mL/kg (200 mg/kg) once a day for 10 days and body weight, alveolar bone, number of viable aerobic bacteria in the oral tissue, interleukin (IL)-1β and tumor necrosis factor (TNF)-α contents in the gingiva, lipid peroxidation (malondialdehyde (MDA) content) and change in the activity of inducible nitric oxide synthase (iNOS) and myeloperoxidase (MPO) were observed together with histopathological changes. […] A group to which 5 mg/kg indomethacin (IND), which is a nonsteroidal anti-inflammatory drug (NSAID), was orally administered was used as a control group. […]
# The number of osteoclasts was determined by staining with TRAP and counting the number of TRAP-positive multinucleated cells. […] The number of TRAP-positive multinucleated osteoclasts (having 3 or more nuclei) formed on the surface of the alveolar bone was counted using an optical microscope.
smiles,measurement,setting,value
"COc1ccc2c(c1)c(CC(=O)O)c(C)n2C(=O)c1ccc(Cl)cc1 [IND, indomethacin]",change in IL-1β content in the gingival tissue as compared to the EPD control group,[1],significantly decrease (p<0.01)
same,change in alveolar bone volume as compared to the EPD control group,[2],significantly increase (p<0.01 or p<0.05)
same,change in the number of osteoclasts as compared to the EPD control group,[3],−50.19%
